A melting point compilation (Tetko et al.; mined from patent text by program, amines drawn as free bases though some values may be those of a salt)

Compound	melting point [°C]
COP(=O)(CC(=C(c1ccc(F)cc1)c1ccc(F)cc1)n1cnnn1)OC	133 to 134
COc1cc(C=O)ccc1OCCCCCCO	55 to 56
FC(F)(F)c1cc(/C=C/c2ncon2)ccc1Cl	85 to 87
CCOc1nc2cc(Cl)c(Cl)cc2nc1N	191 to 193
CCCn1nc2c(N)nc3ccccc3c2c1CCN(C(N)=O)c1ccc(F)c(F)c1	211 to 212
CC(=O)OCC1c2ccccc2-c2c1c1ccccc1c1ccccc21 (stereo not given)	135 to 136
CCc1nc2c(cnn2CC)c(NC2CCOCC2)c1CNC(=O)c1cccc(C(=O)NCc2ccc(C)c(-c3cccc(CN4CCCN(C)CC4)c3)c2)c1	107 to 109
O=C1CCC(N2Cc3cc(CNC(=O)NC4CCCCC4)ccc3C2=O)C(=O)N1 (stereo not given)	265 to 267
CCCCCCCCCC(=O)c1ccc(OCc2ccc(C=C3SC(=S)NC3=O)cc2)c(CCC)c1O	188
CC(C)c1ccc2c(c1)C(C(=O)O)c1ccccc1CO2 (stereo not given)	161 to 162
CC1(C)CCc2c(N3CCOCC3)nc3sc4c(NCCCN5CCCC5=O)ncnc4c3c21	142 to 143
Fc1ccc(-c2nc3c(c(=S)[nH]2)CCCC3)cc1	198 to 200
CC1(OC(=O)c2ccccc2)C(OC(=O)c2ccccc2)OC(COC(=O)c2ccccc2)C1OC(=O)c1ccccc1 (stereo not given)	201 to 209
Cc1ccc(Cl)c(C)c1Nn1cc(C#N)c(=O)[nH]c1=O	> 320
Nc1nccc(Oc2ccc3c(C(=O)Nc4cccc(C(F)(F)F)c4)cnn3c2)n1	102 to 104
COc1cc2cccc(OC)c2cc1C(=O)O	151 to 153
CSC(SC)C1(O)O[C@H](COCc2ccccc2)[C@@H](OCc2ccccc2)[C@H](OCc2ccccc2)[C@H]1OCc1ccccc1 (stereo not given in full)	96 to 97
COc1ccc(-n2nc(Sc3ccc(C)cc3C)c(C)c(C#N)c2=O)cc1	166 to 168
O=c1[nH]c(CCl)nc2cc3c(cc12)CCC3	270 to 272
CN(C)c1ccc(-c2ccccc2C(=O)O)nc1	234 to 236
Cc1cn(-c2cc(C)c(N)c(C#N)c2)c(C)n1	214 to 217
Cc1cc(CCCOc2c(C)cc(-c3noc(C(Cl)(Cl)Cl)n3)cc2C)on1	77 to 77.5
O=C1N(Cc2ccc3nonc3c2)c2ccccc2C12COc1cc3c(cc12)OCO3 (stereo not given)	163 to 165
CCOc1nn(-c2ccc(C(F)(F)F)cn2)cc1CCCOc1c(CC(=O)O)cccc1OC	122 to 123
CCNC(=O)Nc1c(C(O)(C(F)(F)F)C(F)(F)F)ccc2c1CCC2	142 to 143

Compound	melting point [°C]
O=C(O)CCc1cc(C=Nc2ccccc2O)c(O)c(C=Nc2ccccc2O)c1	204 to 205
Cc1nn(CC(C)(C)O)c(-c2ccc(F)cc2)c1-c1ccc2c(c1)NC(=O)CO2	166 to 167
c1ccc(Nc2ncc3ccncc3n2)cc1	161
O=C1c2cc(Cl)ccc2OCC1n1ccnc1 (stereo not given)	123 to 125
COC(=O)c1ccc(OCC(=O)NN=C2C(=O)Nc3ccc(I)cc32)cc1	288
Cn1nc(CO)nc1NCC(O)CCOc1cccc(CN2CCCCC2)c1 (stereo not given)	148
CSc1ncnc2c(N(C)C)nc(Cl)nc12	166 to 168
COC(=O)c1ncn(C(c2ccccc2)c2ccccc2)c1C(=O)OC	93
CC(C)c1cc(C(C)C)c(SSc2c(C(C)C)cc(C(C)C)cc2C(C)C)c(C(C)C)c1	93 to 94
CC(C)(C)c1ccc(C2=NC[C@@H](O)[C@H](c3ccccc3)O2)cc1 (racemic)	50
COc1cn(C(C)C(=O)N(C)C)nc1-c1ccccc1 (stereo not given)	96.5 to 98
Cc1oc(-c2ccccc2)nc1COc1ccc(Cn2cc(CCC(=O)O)c(-c3ccccc3)n2)cc1	179 to 180
O=C(Cc1ccncc1)NCc1cccc2c1C(=O)N(C1CCC(=O)NC1=O)C2=O (stereo not given)	294 to 296
COCCOCCC1CCCCCc2c1oc(=O)c(C(c1ccccc1)C1CC1)c2O (stereo not given)	129 to 133
CCC1=NCC(c2cccc(O)c2)O1 (stereo not given)	< 84
COc1cc(CSC2=NCCS2)nc(N)n1	122 to 124
Cc1ccc2c(c1)CCOC2CCN1CCN(c2ccc(S(N)(=O)=O)cc2)CC1 (stereo not given)	221 to 222
CC(C)N(C)c1cc2c(cc1Cl)NC(=O)CC(c1cccc(-n3nncc3CO)c1)=N2	207
CC(C)(C)OC(=O)C=C1CN=C(c2ccccc2F)c2cc(Cl)ccc2N1	158 to 160
CCCCc1nc2cccnc2n1Cc1ccc2c(Cl)c(C(=O)OC)sc2c1	127 to 129
O=C(Nc1cccc(S(=O)(=O)NCc2ccccn2)c1)c1cnn2c(C(F)(F)F)cc(-c3ccc(C(F)(F)F)cc3)nc12	229
Oc1c(Br)cc(Cl)cc1Cc1cc(F)cc(Cc2cc(Cl)cc(Br)c2O)c1O	164
CC(C)c1cc(-c2ccc(N)c3ccccc23)nc(N)n1	185 to 186
O=C(O)c1ccc(C(=O)/C=C/c2ccc(-c3cccs3)cc2F)cc1	> 260

Second part, the compound after the results:

melting point [°C]	Compound
188	COc1ccccc1NC(=O)Nc1nc(N(CCC(=O)O)Cc2ccc(Cl)c(Cl)c2)nc(=O)[nH]1
236 to 241	Cc1nn(C)c(O)c1C(=O)c1ccc(S(C)(=O)=O)c(-c2cnco2)c1Cl
113 to 114	Cc1ccc([N+](=O)[O-])c(OCCOc2cc(C(=O)OC(C)(C)C)ccc2[N+](=O)[O-])c1
144 to 146	CC(C)(C)OC(=O)NCCN(O)C(N)=O
200 to 202	Cc1cccc(Cn2nnc(C(N)=O)c2N)c1
147	O=C(CC(CCCc1ccccc1)C(=O)O)c1ccc(Br)cc1 (stereo not given)
173 to 174	CCC(C)(C)N1C(=O)C(=O)N(c2ccc(C#N)cc2)C1=S
211 to 215	COC(=O)C(C(=O)OC)c1ccc2c(c1)C(=O)c1cc3ccccc3cc1C2=O
167 to 169	CC(C)(C)OC(=O)N1CCCC1C(=O)Nc1cccc(-c2cc(-c3ccccc3O)nc(NC(=O)c3cccs3)c2C#N)c1 (stereo not given)
121 to 123	O=C(Nc1ccccc1)OCCCC(=O)c1ccccc1
91 to 92	N#CCNC(=O)C1CC1
79 to 81	CNc1nnc(C(C)(C)C)s1
200 to 202	COC(=O)c1cccc(C(=O)N(C)c2ccc3c(=O)n4c(nc3c2)C(=Cc2ccccc2)CC4)c1
71 to 72	CCOC(=O)c1cc2c(=O)ccoc2nc1C(=O)OCC
149 to 150	COC(=O)c1ccc(=O)n(CCNC(=O)c2cc(Cl)ccc2OC)c1
69 to 70	Cc1ccc(C(O[Si](C)(C)C(C)(C)C)C(=O)NCCO)cc1 (stereo not given)
165 to 175	CCOC(=O)NS(=O)(=O)c1ccc(C(=O)C=Cc2cc(-c3cc4ccccc4[nH]3)c(OC)cc2OC)cc1
89 to 93	CC(C)(C)OC(=O)NCc1ccccc1-c1ccc(CO)cc1
165 to 171	Cc1cc(C(=O)N(C)C)cc(N)n1
77 to 78	Cc1oc2ccc(N)cc2c1C
60 to 63	COC(=O)c1ncc(Cl)nc1Cl
